Measurements from publication PMC7954794, “Protein context shapes the specificity of SH3 domain-mediated interactions in vivo” (Nature Communications, 2021).

How the values were obtained:
[1] = system: PAK1; experiment: Co-immunoprecipitation / Western blot NCK2-PAK1 (Fig. S6A-B); format: cell-based, human; conditions: Prey PAK1, sheet FigS6A-D
Method: (§1) For the experiments with HEK293T cells (1 × 10cm confluent dish for WB and 3 × 15cm for MS), cells were washed in ice-cold PBS and lysed in lysis buffer (20 mM Tris-HCl pH 7.4, 150 mM NaCl, 1 mM EDTA, 0.5% sodium deoxycholate (Millipore Sigma), 10 mM beta-glycerophosphate (Millipore Sigma), 10 mM sodium pyrophosphate (Millipore Sigma), 50 mM NaF (Millipore Sigma)). Protease inhibitors were added to the lysis buffer (P8340 (Millipore Sigma) for WB and PMSF 1 mM, aprotinin 10 µg/mL, leupeptin 10 µg/mL and pepstatin 10 µg/mL (all Millipore Sigma) for MS). Cells were scraped in the lysis buffer and lysed at 4 °C for 20 min and centrifuged for another 20 min at 20,000 g at 4 °C. Bait proteins from the supernatant were immunoprecipitated for 90 min at 4 °C with FLAG-M2 agarose beads (Millipore Sigma) and washed three times in the lysis buffer. Beads were then used for WB or MS experiments (see below).
(§2) Protein extracts and affinity-purified baits from yeast and human lysed cells were migrated on 10% polyacrylamide gels. The separated proteins were then transferred to nitrocellulose membranes. Validation of correct protein loading was done with ponceau staining of the membranes. Before the primary antibody incubations, membranes were blocked in 5% milk. Protein signals were detected on an Amersham Imager 600RGB (GE Healthcare) following the incubation of the membranes with the appropriate HRP-conjugated secondary antibodies and the Clarity Western ECL Substrate (Bio-Rad). The antibodies used in this study are M2-HRP (A8592, Sigma, 1/50,000), rabbit anti-FLAG (F7425, Sigma, 1/1000), PAK (SC-881, Santa Cruz, 1/200), p130cas/BCAR1 (SC-860, Santa Cruz, 1/200), actin (Cell Signaling Technology, 1/2000), anti-mouse HRP (Cell Signaling Technology, 1/10,000) and anti-rabbit HRP (Cell Signaling Technology, 1/10,000). The quantification of the WB signals was performed with the Amersham Imager 600 analysis software (GE Healthcare).
(§3) Supplementary Fig. 6| NCK2 SH3 shuffling affects its interactions with PAK1 and P130CAS/BCAR1 in cells but only slightly alters the availability of the SH3 binding pockets in vitro. A, Western blot analysis of NCK2 SH3-shuffled proteins interaction with PAK1. Each bait is N-terminally fused to a 3XFLAG tag. Loading corresponds to Ponceau staining of the nitrocellulose membrane. Experiment was performed in four replicates in HEK293T cells. B, Western blot quantification of PAK1 co-immunoprecipitation with NCK2.
(§4) Average log2 ratio relative to the WT protein is shown (NCK2mut/NCK2WT, WT NCK2 log2 ratio = 0). Ratios from replicates were compared t o WT NCK2 via pairwise ANOVA statistical […]
(§5) bars indicate the SD. C, Western blot analysis of NCK2 SH3-shuffled proteins association with SH2 target P130CAS/BCAR1. The experiment was performed in four replicates in HEK293T cells stimulated with the tyrosine phosphatase inhibitor pervanadate. D, Quantification of the Western blot signals of P130CAS co-immunoprecipitation with NCK2 as in B,. The four ratios of the replicates were compared to WT NCK2 via pairwise ANOVA statistical test (p -values: […]
(1 picture or pasted object on this page, not shown here)

[2] = system: P130CAS/BCAR1; experiment: Co-immunoprecipitation / Western blot NCK2-P130CAS/BCAR1 (Fig. S6C-D); format: cell-based, human; conditions: Prey P130CAS, sheet FigS6A-D
Method: Human embryonic kidney 293T cells (HEK293T, ATCC:CRL-3216) were grown in Dulbecco’s Modified Eagle’s medium (DMEM) high glucose complemented with 10% fetal calf serum under 5% CO2 at 37 °C. Transient expression of cDNA in cells was performed by polyethylenimine (PEI, Millipore Sigma) transfections. Enrichment of phospho-dependent PPIs was done by treating HEK293T cells with the tyrosine phosphatase inhibitor pervanadate, freshly made by mixing 4 mM orthovanadate (Millipore Sigma) with 30% H2O2 (Millipore Sigma) in water in a 200:1 volume ratio.
as §1, §2, §3, §4, §5

[3] = system: BZZ1-1; experiment: DHFR-PCA on solid medium, bait BZZ1-1 (Fig. 1B); format: cell-based, Saccharomyces cerevisiae; conditions: bait BZZ1-1, label = prey; 4 replicates
Description: Supplement 41467_2021_21873_MOESM8_ESM.xlsx, sheet "Fig1B" | column: medsize; medrep; Score

[4] = system: BEM1-1; experiment: DHFR-PCA on solid medium, bait BEM1-1 (Fig. 1B); format: cell-based, Saccharomyces cerevisiae; conditions: bait BEM1-1, label = prey; for medrep (log2 median colony size normalized to plate background, PCA score): 2-8 replicates
Description: (§6) Supplement 41467_2021_21873_MOESM8_ESM.xlsx, sheet "Fig1B" | column: medsize; medrep; Ratio; Score

[5] = system: BUD14; experiment: DHFR-PCA on solid medium, bait BUD14 (Fig. 1B); format: cell-based, Saccharomyces cerevisiae; conditions: bait BUD14, label = prey; for medrep (log2 median colony size normalized to plate background, PCA score): 4 replicates; for Ratio (SH3-deleted/WT medrep): only significant differences showed, PPIs completely lost have a ratio of 0.1 and the gained PPIs 2.5
Description: as §6

[6] = system: 575 putative partners (preys) of 22 WT SH3-containing proteins; experiment: DHFR-PCA on solid medium, WT and SH3-deleted baits (Fig. 1B); format: cell-based, Saccharomyces cerevisiae; set-up: key to Score: 0: SH3-independent; 1: SH3-dependent PPIs; 2: SH3-inhibited PPIs; conditions: for medrep (log2 median colony size normalized to plate background, PCA score): bait SLA1-3, DHFR-PCA, label = prey, Replicates 4 (2 for YCR009C, YDR388W, YIL033C); for Score: bait SLA1-3, label = prey
Description: To assess the requirement of SH3 domains for PPIs in vivo, we first measured binary interactions between 22 WT SH3-containing proteins (Supplementary Fig. 1A) as baits and 575 putative partners from their interconnected signaling networks using the dihydrofolate reductase protein–fragment complementation assay (DHFR-PCA) in the budding yeast Saccharomyces cerevisiae. About 33% (202/607) of the PPIs detected were described before, mostly by direct methods (Supplementary Fig. 1B, C)[11]. We repeated the experiments with baits in which the SH3s were individually replaced with a flexible linker by genome editing (SH3 domain deletion/stuffing, Fig. 1A). The stuffer DNA sequence ([…]) codes for a small flexible poly-Gly with Ser peptide ([…]) that is inspired by previous experiments[12],[13]. About a third of the SH3-containing protein interactome is qualitatively or quantitatively SH3-dependent (171 PPIs out of 607, Fig. 1B and Supplementary Fig. 1B, C). We validated the vast majority of the quantitative changes in low-throughput experiments and excluded that this is simply due to changes in protein abundance in most cases (Supplementary Fig. 1D–G). SH3-binding motifs[14] are more frequent in the SH3-dependent PPI partners when compared to sequences from random proteins, SH3-independent PPI partners or PPI partners that are stronger or gained following SH3 deletions (p values = 1.5 × 10^−17, 0.0038 and 2.1 × 10^−08, respectively; Mann–Whitney test, one-tailed, Fig. 1C). The changes we measure are therefore enriched for PPIs that depend on the direct interactions of the domains with the PPI partners.
The complete list of strains, primers, and gRNAs used in this study can be found in Supplementary Tables 1–3. All constructed yeast strains were validated by polymerase chain reaction (PCR) and confirmed by Sanger sequencing of the locus of interest. Bait strains for the DHFR-PCA experiments were constructed as follows. The genes of interest were fused at their genomic 3′ end by replacing the stop codon with a linker ([…]), the DHFR F[1,2] followed by a smaller linker (GGGGS), a 1× FLAG tag ([…]) and the NATMX4 resistance cassette via homologous recombination (all amplified from pAG25-DHFR[1,2]-linker-FLAG). The set of 615 prey strains (DHFR F[3] fusions in the BY4742 background) were retrieved from the Yeast Protein Interactome Collection[43] with the exception of 73 that were reconstructed (Supplementary Tables 1 and 2). Knockout strains were taken from the yeast knockout collection except for ABP1, BEM1, BZZ1, and SLA1, which were reconstructed by replacing the ORFs with the NATMX4 resistance cassette by homologous recombination in the BY4741 background.
Yeast SH3 domain genomic sequences were replaced by CRISPR–Cas9 genome editing. Each SH3 domain (as defined by the SMART database V8.0 except for Ysc84 SH3 (as defined by PROSITE), see Source Data for all SH3 sequences and Supplementary Table 1 for primers used) was specifically targeted by one gRNA[46]. Yeast competent cells were co-transformed with a pCAS plasmid (Addgene plasmid 60847[47]) expressing both the gRNA of interest and Streptococcus pyogenes Cas9[46] and a donor DNA sequence (stuffer) with 60 bp homology arms surrounding the SH3 DNA sequence. The Stuffer DNA was either PCR amplified or digested from a plasmid. The stuffer DNA sequence ([…]) codes for a small flexible linker ([…]) inspired by protein linkers used in structural biology[12],[13]. This type of linker is frequently used for fusing proteins without affecting the structure of the linked proteins.
The overall DHFR-PCA pipeline is based on Tarassov et al.[43] and the procedures have also been published as a visualized protocol. The screens were performed with robotically manipulated pin tools (BM5-SC1, S&P Robotics Inc.). First, the preys were cherry-picked from 96-well plates to omnitrays in a 384 format on YPD + HPH solid media. […]

[7] = system: ABP1; experiment: DHFR-PCA on solid medium, bait ABP1 (Fig. 1B); format: cell-based, Saccharomyces cerevisiae; conditions: bait ABP1, label = prey; 2-4 replicates
Description: as §6

[8] = system: BBC1; experiment: DHFR-PCA on solid medium, bait BBC1 (Fig. 1B); format: cell-based, Saccharomyces cerevisiae; conditions: bait BBC1, label = prey; 2-4 replicates
Description: as §6

[9] = system: BOI2; experiment: DHFR-PCA on solid medium, bait BOI2 (Fig. 1B); format: cell-based, Saccharomyces cerevisiae; conditions: bait BOI2, label = prey; for medrep (log2 median colony size normalized to plate background, PCA score): 3-8 replicates
Description: as §6

[10] = system: BEM1-2; experiment: DHFR-PCA on solid medium, bait BEM1-2 (Fig. 1B); format: cell-based, Saccharomyces cerevisiae; conditions: bait BEM1-2, label = prey; 2-8 replicates
Description: as §6

[11] = system: BOI1; experiment: DHFR-PCA on solid medium, bait BOI1 (Fig. 1B); format: cell-based, Saccharomyces cerevisiae; conditions: bait BOI1, label = prey
Description: as §6

[12] = average of R1-R4, SD in next column
[13] = only significant differences showed, PPIs completely lost have a ratio of 0.1 and the gained PPIs 2.5

| Substance | medrep (log2 median colony size normalized to plate background, PCA score) [3] | medrep (log2 median colony size normalized to plate background, PCA score) [4] | medrep (log2 median colony size normalized to plate background, PCA score) [5] | Ratio (SH3-deleted/WT medrep) [5] | medrep (log2 median colony size normalized to plate background, PCA score) [6] | Score [6] | medrep (log2 median colony size normalized to plate background, PCA score) [7] | medrep (log2 median colony size normalized to plate background, PCA score) [8] | medrep (log2 median colony size normalized to plate background, PCA score) [9] | medrep (log2 median colony size normalized to plate background, PCA score) [10] | also measured |
| --- | --- | --- | --- | --- | --- | --- | --- | --- | --- | --- | --- |
| NCK2 WT |  |  |  |  |  |  |  |  |  |  | Log2 ratio average [1, 12]: 0; Log2 ratio on WT R1 ([1]; replicate R1): 0; Ratio on WT R1 ([1]; replicate R1): 1; Log2 ratio on WT R3 ([1]; replicate R3): 0; Ratio on WT R3 ([1]; replicate R3): 1; Log2 ratio on WT R4 ([1]; replicate R4): 0; Ratio on WT R4 ([1]; replicate R4): 1; Log2 ratio average [2, 12]: 0; Log2 ratio on WT R1 ([2]; replicate R1): 0; Ratio on WT R1 ([2]; replicate R1): 1; Log2 ratio on WT R3 ([2]; replicate R3): 0; Ratio on WT R3 ([2]; replicate R3): 1; Log2 ratio on WT R4 ([2]; replicate R4): 0; Ratio on WT R4 ([2]; replicate R4): 1 |
| YBR234C | 4.45 | 2.151 | 1.638 | 0.1 | 5.2 | 0 | 5.488 | 5.076 | 2.566 | 2.151 |  |
| YCR088W (PWATAEYDYDAAEDNELTFVENDKIINIEFVDDDWWLGELEKDGSKGLFPSNYVSLGN) | 4.666 | 1.996 |  |  | 4.931 | 0 | 5.528 | 4.833 | 2.0061 | 1.996 | Ratio (SH3-deleted/WT medrep) [4, 13]: 0.1 |
| YER155C |  |  | 1.311 | 0.1 |  |  |  |  | 1.649 |  | medrep (log2 median colony size normalized to plate background, PCA score) ([11]; 3-8 replicates): 1.496; Ratio (SH3-deleted/WT medrep) [11, 13]: 0.1; Ratio (SH3-deleted/WT medrep) [9, 13]: 0.1 |
